We go through 13 compounds from patent publication US12180193B2, “Accelerating fibrosarcoma protein degrading compounds and associated methods of use” (Arvinas Operations, Inc., priority 2020, dated 2024).

One assay addresses T1, BRAF V600E (Homo sapiens, UniProt P15056, V600E).
T1 construct: expressed in transfected cells
The assay can be described thus: Cellular assay of target protein degradation, T-Rex 293 cells stably transfected with HA-BRAF_V600E (HA immunofluorescence, high content imaging). It is filed as cell-based. As to conditions: T-Rex 293 HA-BRAF V600E; for DC50: half maximal degradation, read-out: BRaf V600E DC50; for Dmax: maximum degradation observed. The procedure, abridged: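 24 h compound exposure, 1 μM–0.1 nM final, 0.1% DMSO, 37 °C; cells induced with 1 ng/mL doxycycline. PFA fix, Triton permeabilize, anti-HA overnight 4 °C, Hoechst/phalloidin counterstain. Output: DC50, Dmax as % control.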

The target in a further assay is T2, BRAF G466V (Homo sapiens, UniProt P15056, G466V).
T2 construct: expressed in transfected cells
T2 sequence (P15056 whole entry G466V): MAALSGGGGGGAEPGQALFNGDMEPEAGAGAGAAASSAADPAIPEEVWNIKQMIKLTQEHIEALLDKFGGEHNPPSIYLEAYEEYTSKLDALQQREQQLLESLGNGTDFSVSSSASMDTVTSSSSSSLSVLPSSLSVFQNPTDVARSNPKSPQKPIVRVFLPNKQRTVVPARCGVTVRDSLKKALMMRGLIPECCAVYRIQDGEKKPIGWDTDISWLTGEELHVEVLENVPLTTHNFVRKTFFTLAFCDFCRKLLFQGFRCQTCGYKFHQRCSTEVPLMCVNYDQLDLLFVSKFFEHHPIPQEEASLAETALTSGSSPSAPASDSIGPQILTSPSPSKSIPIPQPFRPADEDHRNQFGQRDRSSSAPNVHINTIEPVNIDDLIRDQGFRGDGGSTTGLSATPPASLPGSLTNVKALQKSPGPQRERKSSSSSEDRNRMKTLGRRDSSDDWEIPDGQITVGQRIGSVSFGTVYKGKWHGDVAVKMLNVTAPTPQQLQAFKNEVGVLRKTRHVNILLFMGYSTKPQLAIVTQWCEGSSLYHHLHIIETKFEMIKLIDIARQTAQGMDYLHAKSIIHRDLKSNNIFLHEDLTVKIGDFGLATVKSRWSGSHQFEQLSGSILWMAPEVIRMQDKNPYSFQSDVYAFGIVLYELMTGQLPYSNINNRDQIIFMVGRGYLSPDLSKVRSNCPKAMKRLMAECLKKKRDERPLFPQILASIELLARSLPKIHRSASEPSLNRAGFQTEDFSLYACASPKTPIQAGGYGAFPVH
The experiment in a line: Cellular assay of target protein degradation, T-Rex 293 cells stably transfected with HA-BRAF G466V (HA immunofluorescence, high content imaging). Conditions: T-Rex 293 HA-BRAF G466V; for DC50: half maximal degradation, read-out: BRaf G466V DC50; for Dmax: maximum degradation observed. It is filed as cell-based. The procedure, abridged: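 24 h compound, 30 nM–3 pM final, 0.1% DMSO, 37° C; HA-BRAF G466V induced with 0.75 ng/mL doxycycline. PFA fix, Triton perm, anti-HA + Alexa fluor secondary, Hoechst/phalloidin counterstain; imaging. DC50, Dmax (% of control).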

Each structure is given as a SMILES string.

T1 sequence (P15056 whole entry V600E): as the sequence (P15056 whole entry G466V) above, with V466G, V600E counted along it

As to `O=C1CC[C@H](N2Cc3cc(/C=C/CN4CC5(C4)CN(c4ccc(-c6cnc7[nH]cc(C(=O)c8c(F)ccc(NS(=O)(=O)N9CC[C@@H](F)C9)c8F)c7c6)cc4)C5)ccc3C2=O)C(=O)N1` [Compound 38, (3R)-N-{3-[5-(4-{6-[(2E)-3-{2-[(3S)-2,6-dioxopiperidin-3-yl]-1-oxo-2,3-dihdyro-1H-isoindol-5-yl}prop-2-en-1-yl]-2,6-diazaspiro[3.3]heptan-2-yl}phenyl)-1H-pyrrolo[2,3-b]pyridine-3-carbonyl]-2,4-difluorophenyl}-3-fluoropyrrolidine-1-sulfonamide], the DC50 at BRAF V600E is 5 to 50 nM; on BRAF G466V, under 1 nM. Also, the Dmax on BRAF V600E and on BRAF G466V was 35 to 70% in each case.
As to `O=C1CC[C@@H](N2Cc3cc(/C=C/CN4CC5(C4)CN(c4ccc(-c6cnc7[nH]cc(C(=O)c8c(F)ccc(NS(=O)(=O)N9CC[C@@H](F)C9)c8F)c7c6)cc4)C5)ccc3C2=O)C(=O)N1` [Compound 39, (3R)-N-{3-[5-(4-{6-[(2E)-3-{2-[(3R)-2,6-dioxopiperidin-3-yl]-1-oxo-2,3-dihydro-1H-isoindol-5-yl}prop-2-en-1-yl]-2,6-diazaspiro[3.3]heptan-2-yl}phenyl)-1H-pyrrolo[2,3-b]pyridine-3-carbonyl]-2,4-difluorophenyl}-3-fluoropyrrolidine-1-sulfonamide], on BRAF V600E, the DC50 lay in the range of 5 to 50 nM and the Dmax was 35 to 70%. On BRAF G466V, the DC50 was under 1 nM and the Dmax lay in the range of 35 to 70%.
On to `O=C1CC[C@H](N2Cc3cc(N4CCC(CN5CCN(c6ccc(-c7cnc8[nH]cc(C(=O)c9c(F)ccc(NS(=O)(=O)N%10CC[C@@H](F)C%10)c9F)c8c7)cc6)CC5)CC4)c(F)cc3C2=O)C(=O)N1` [Compound 40, (3R)-N-{3-[5-(4-{4-[(1-{2-[(3S)-2,6-dioxopiperidin-3-yl]-6-fluoro-1-oxo-2,3-dihydro-1H-isoindol-5-yl}piperidin-4-yl)methyl]piperazin-1-yl}phenyl)-1H-pyrrolo[2,3-b]pyridine-3-carbonyl]-2,4-difluorophenyl}-3-fluoropyrrolidine-1-sulfonamide], for which the DC50 at BRAF V600E is 5 to 50 nM; at BRAF G466V, 1 to 10 nM. Besides, the Dmax at BRAF V600E and at BRAF G466V was 35 to 70% in each case.
As for `O=C1CC[C@@H](N2Cc3cc(N4CCC(CN5CCN(c6ccc(-c7cnc8[nH]cc(C(=O)c9c(F)ccc(NS(=O)(=O)N%10CC[C@@H](F)C%10)c9F)c8c7)cc6)CC5)CC4)c(F)cc3C2=O)C(=O)N1` [Compound 41, (3R)-N-{3-[5-(4-{4-[(1-{2-[(3R)-2,6-dioxopiperidin-3-yl]-6-fluoro-1-oxo-2,3-dihydro-1H-isoindol-5-yl}piperidin-4-yl)methyl]piperazin-1-yl}phenyl)-1H-pyrrolo[2,3-b]pyridine-3-carbonyl]-2,4-difluorophenyl}-3-fluoropyrrolidine-1-sulfonamide], at BRAF V600E, the DC50 is over 500 nM and the Dmax is over 70%. At BRAF G466V, the DC50 lay within 1 to 10 nM and the Dmax is 35 to 70%.
Turning to `O=C1CCC(N2Cc3cc(N4CC5(CN(CC#Cc6ccc(-c7cnc8[nH]cc(C(=O)c9c(F)ccc(NS(=O)(=O)N%10CC[C@@H](F)C%10)c9F)c8c7)cc6)C5)C4)ccc3C2=O)C(=O)N1` (stereo partly drawn) [Compound 42, (3R)-N-(3-{5-[4-(3-{6-[2-(2,6-dioxopiperidin-3-yl)-1-oxo-2,3-dihydro-1H-isoindol-5-yl]-2,6-diazaspiro[3.3]heptan-2-yl}prop-1-yn-1-yl)phenyl]-1H-pyrrolo [2,3-b]pyridine-3-carbonyl}-2,4-difluorophenyl)-3-fluoropyrrolidine-1-sulfonamide], on BRAF V600E, the DC50 is 5 to 50 nM and the Dmax was in the range of 35 to 70%. For the same compound, at BRAF G466V, the half-maximal degradation concentration (DC50) is 1 to 10 nM and the Dmax is 35 to 70%.
Turning to `O=C1CCC(N2Cc3cc(OC4CC5(C4)CN(c4ccc(-c6cnc7[nH]cc(C(=O)c8c(F)ccc(NS(=O)(=O)N9CC[C@@H](F)C9)c8F)c7c6)cc4)C5)ccc3C2=O)C(=O)N1` (stereo partly drawn) [Compound 43, (3R)-N-(3-{5-[4-(6-{[2-(2,6-dioxopiperidin-3-yl)-1-oxo-2,3-dihydro-1H-isoindol-5-yl]oxy}-2-azaspiro[3.3]heptan-2-yl)phenyl]-1H-pyrrolo[2,3-b]pyridine-3-carbonyl}-2,4-difluorophenyl)-3-fluoropyrrolidine-1-sulfonamide], at BRAF V600E, the DC50 was in the range of 50 to 500 nM and the Dmax was in the range of 35 to 70%. Further, at BRAF G466V, the DC50 was in the range of 10 to 30 nM and the Dmax is 35 to 70%.
`COc1cc(OCCN2CCN(CCOc3ccc(-c4cnc5[nH]cc(C(=O)c6c(F)ccc(NS(=O)(=O)N7CC[C@@H](F)C7)c6F)c5c4)cc3)CC2)cc2c1C(=O)N([C@H]1CCC(=O)NC1=O)C2` [Compound 44, (3R)-N-(3-{5-[4-(2-{4-[2-({2-[(3S)-2,6-dioxopiperidin-3-yl]-7-methoxy-1-oxo-2,3-dihydro-1H-isoindol-5-yl}oxy)ethyl]piperazin-1-yl}ethoxy)phenyl]-1H-pyrrolo[2,3-b]pyridine-3-carbonyl}-2,4-difluorophenyl)-3-fluoropyrrolidine-1-sulfonamide]: on BRAF V600E, the DC50 fell in the range of 5 to 50 nM and the maximal degradation (Dmax) fell in the range of 35 to 70%. At BRAF G466V, the DC50 is under 1 nM and the Dmax was in the range of 35 to 70%.
In the case of `COc1cc(OCCN2CCN(CCOc3ccc(-c4cnc5[nH]cc(C(=O)c6c(F)ccc(NS(=O)(=O)N7CC[C@@H](F)C7)c6F)c5c4)cc3)CC2)cc2c1C(=O)N([C@@H]1CCC(=O)NC1=O)C2` [Compound 45, (3R)-N-(3-{5-[4-(2-{4-[2-({2-[(3R)-2,6-dioxopiperidin-3-yl]-7-methoxy-1-oxo-2,3-dihydro-1H-isoindol-5-yl}oxy)ethyl]piperazin-1-yl}ethoxy)phenyl]-1H-pyrrolo[2,3-b]pyridine-3-carbonyl}-2,4-difluorophenyl)-3-fluoropyrrolidine-1-sulfonamide], the DC50 on BRAF V600E is 5 to 50 nM; at BRAF G466V, under 1 nM. Further, the Dmax on BRAF V600E and on BRAF G466V was 35 to 70% throughout.
Take `O=C1CCC(N2Cc3cc(C4CCN(CC5CCN(c6ncc(-c7cnc8[nH]cc(C(=O)c9c(F)ccc(NS(=O)(=O)N%10CC[C@@H](F)C%10)c9F)c8c7)cn6)CC5)CC4)ccc3C2=O)C(=O)N1` (stereo partly drawn) [Compound 46, (3R)-N-[3-(5-{2-[4-({4-[2-(2,6-dioxopiperidin-3-yl)-1-oxo-2,3-dihydro-1H-isoindol-5-yl]piperidin-1-yl}methyl)piperidin-1-yl]pyrimidin-5-yl}-1H-pyrrolo[2,3-b]pyridine-3-carbonyl)-2,4-difluorophenyl]-3-fluoropyrrolidine-1-sulfonamide]: at BRAF V600E, the DC50 lay in the range of 5 to 50 nM and the Dmax fell in the range of 35 to 70%. For the same compound, at BRAF G466V, the DC50 is under 1 nM and the Dmax is over 70%.
Turning to `O=C1CCC(N2Cc3cc(N4CC5(CC(CN6CCCc7cc(-c8cnc9[nH]cc(C(=O)c%10c(F)ccc(NS(=O)(=O)N%11CC[C@@H](F)C%11)c%10F)c9c8)ccc76)C5)C4)ccc3C2=O)C(=O)N1` (stereo partly drawn) [Compound 47, (3R)-N-(3-{5-[1-({2-[2-(2,6-dioxopiperidin-3-yl)-1-oxo-2,3-dihydro-1H-isoindol-5-yl]-2-azaspiro[3.3]heptan-6-yl}methyl)-1,2,3,4-tetrahydroquinolin-6-yl]-1H-pyrrolo[2,3-b]pyridine-3-carbonyl}-2,4-difluorophenyl)-3-fluoropyrrolidine-1-sulfonamide], the DC50 is over 500 nM on BRAF V600E and 10 to 30 nM at BRAF G466V. At BRAF G466V, the Dmax fell in the range of 35 to 70%.
As to `O=C1CC[C@@H](NC(=O)c2ccc(C3CCN(CC4CCN(c5ccc(-c6cnc7[nH]cc(C(=O)c8c(F)ccc(NS(=O)(=O)N9CC[C@@H](F)C9)c8F)c7c6)cc5)CC4)CC3)cc2F)C(=O)N1` [Compound 48, 4-(1-{[1-(4-{3-[2,6-difluoro-3-({[(3R)-3-fluoropyrrolidin-1-yl]sulfonyl}amino)benzoyl]-1H-pyrrolo[2,3-b]pyridin-5-yl}phenyl)piperidin-4-yl]methyl}piperidin-4-yl)-N-[(3R)-2,6-dioxopiperidin-3-yl]-2-fluorobenzamide], at BRAF V600E, the DC50 is 50 to 500 nM and the Dmax was under 35%. Also, on BRAF G466V, the DC50 fell in the range of 1 to 10 nM and the Dmax is under 35%.
On to `O=C1CCC(N2Cc3cc(C4CCN(CCCc5ccc(-c6cnc7[nH]cc(C(=O)c8c(F)ccc(NS(=O)(=O)N9CC[C@@H](F)C9)c8F)c7c6)cc5)CC4)ccc3C2=O)C(=O)N1` (stereo partly drawn) [Compound 49, (3R)-N-(3-{5-[4-(3-{4-[2-(2,6-dioxopiperidin-3-yl)-1-oxo-2,3-dihydro-1H-isoindol-5-yl]piperidin-1-yl}propyl)phenyl]-1H-pyrrolo[2,3-b]pyridine-3-carbonyl}-2,4-difluorophenyl)-3-fluoropyrrolidine-1-sulfonamide], for which the DC50 is 5 to 50 nM on BRAF V600E and under 1 nM at BRAF G466V. For the same compound, the Dmax at BRAF V600E and on BRAF G466V was 35 to 70% throughout.
Turning to `O=C1CCC(N2Cc3cc(N4CC5(CN(CCOc6ccc(-c7cnc8[nH]cc(C(=O)c9c(F)ccc(NS(=O)(=O)N%10CC[C@@H](F)C%10)c9F)c8c7)cc6)C5)C4)ccc3C2=O)C(=O)N1` (stereo partly drawn) [Compound 50, (3R)-N-(3-{5-[4-(2-{6-[2-(2,6-dioxopiperidin-3-yl)-1-oxo-2,3-dihydro-1H-isoindol-5-yl]-2,6-diazaspiro[3.3]heptan-2-yl}ethoxy)phenyl]-1H-pyrrolo[2,3-b]pyridine-3-carbonyl}-2,4-difluorophenyl)-3-fluoropyrrolidine-1-sulfonamide], at BRAF V600E, the DC50 lay within 5 to 50 nM and the Dmax lay within 35 to 70%. Further, on BRAF G466V, the DC50 is under 1 nM and the greatest degradation seen (Dmax) was over 70%.
